Measured values as given in patent publication US5393923A, “3,5-di-t-butyl-4-hydroxyphenylmethylhydroxylamines and their derivatives, pharmaceutical compositions, and methods of use therefor” (Warner-Lambert Company, priority 1993, dated 1995).

Experiments:
[1] = tested on: carrageenan-induced rat foot paw edema; test: Carrageenan-induced rat foot paw edema-2 (CFE-2) assay; type: in vivo; conditions: dosed 1 hour before carrageenan, edema measured 5 hours after, read-out: CFE ID40
Procedure: CARRAGEENAN-INDUCED RAT FOOT PAW EDEMA-2 (CFE-2) ASSAY: PROTOCOL
Carrageenan solution (1% w/v) is prepared by dissolving 100 mg carrageenan (Marine Colloidal Div., Springfield, N.J.) in 10 mL of sterile saline (0.9%) solution (Travenol). The solution is vortexed for 30 to 45 minutes. Animals are dosed with compound 1 hour before carrageenan challenge. Foot paw edema is induced by injecting 0.10 mL of the 1% carrageenan subcutaneously into the plantar portion of the right hind paw of each rat under light anesthesia. Initial foot paw volume is measured immediately following carrageenan challenge using mercury plethysmography (Buxco Electronics). Edema is measured 5 hours after carrageenan. The difference between the 5-hour and the initial paw volume is expressed as delta edema. The delta edema for each test group of animals is used to calculate the percent inhibition of edema achieved by the compound at the test dose compared with the vehicle control group. The ID40 (the dose at which swelling is inhibited by 40%) is calculated by probit analysis for the dose at which 40% inhibition occurs.

[2] = tested on: Mycobacterium-induced rat footpad edema; test: Mycobacterium-induced rat footpad edema assay (MFE); type: in vivo; conditions: dosed 1 hour before Mycobacterium and on Days 1 and 2, swelling at 72 hours, read-out: MFE ID40
Procedure: MYCOBACTERIUM-INDUCED RAT FOOTPAD EDEMA ASSAY (MFE): PROTOCOL
Mycobacterium butyricum (5 mg/mL) is suspended in paraffin oil by sonication for 10 minutes in an ice bath. Footpad edema is induced on Day 0 by injecting 0.1 mL of the Mycobacterium mixture into the left hindpaw of lightly anesthetized rats. Swelling in the injected hindpaw is determined by mercury plethysmography 72 hours after injection. Groups of rats are treated with test compounds (suspended in 0.5% hydroxypropyl methylcellulose with 0.2% Tween-80) or vehicle 1 hour before Mycobacterium injection and on Days 1 and 2. Inhibition of swelling is determined by comparing the change in hindpaw volume in compound- and vehicle-treated rats. An ID40 (the dose at which swelling is inhibited by 40%) is calculated by probit analysis.

gastric ulcers = test: Gastric ulcerogenicity (UD); type: in vivo, Male outbred Wistar rats; conditions: @ 200 mg/kg; oral, fasted rats, 6 hours; class symbol
Procedure: GASTRIC ULCEROGENICITY (UD): PROTOCOL
Male outbred Wistar rats (100 to 250 g) are fasted for 24 hours. After fasting, test compounds are administered orally (in 2 mL/kg of 0.5% hydroxypropyl methylcellulose) and the rats are denied access to food and water for 6 more hours. The rats are then sacrificed with CO2 so that the stomachs can be removed, opened along the greater curvature, and evaluated for the presence of gastric ulcers. Results are expressed as the percent of rats with gastric ulcers at a given dose or as the UD50 (the dose which causes ulcers in 50% of the rats).

cyclooxygenase = target: T1, cyclooxygenase (Rattus norvegicus, UniProt Q63921); test: ARBC whole cell cyclooxygenase assay (PGF2α formation, RBL-1 cells); type: cell-based
T1 construct: host or cells: RBL-1
T1 sequence (Q63921 27-602): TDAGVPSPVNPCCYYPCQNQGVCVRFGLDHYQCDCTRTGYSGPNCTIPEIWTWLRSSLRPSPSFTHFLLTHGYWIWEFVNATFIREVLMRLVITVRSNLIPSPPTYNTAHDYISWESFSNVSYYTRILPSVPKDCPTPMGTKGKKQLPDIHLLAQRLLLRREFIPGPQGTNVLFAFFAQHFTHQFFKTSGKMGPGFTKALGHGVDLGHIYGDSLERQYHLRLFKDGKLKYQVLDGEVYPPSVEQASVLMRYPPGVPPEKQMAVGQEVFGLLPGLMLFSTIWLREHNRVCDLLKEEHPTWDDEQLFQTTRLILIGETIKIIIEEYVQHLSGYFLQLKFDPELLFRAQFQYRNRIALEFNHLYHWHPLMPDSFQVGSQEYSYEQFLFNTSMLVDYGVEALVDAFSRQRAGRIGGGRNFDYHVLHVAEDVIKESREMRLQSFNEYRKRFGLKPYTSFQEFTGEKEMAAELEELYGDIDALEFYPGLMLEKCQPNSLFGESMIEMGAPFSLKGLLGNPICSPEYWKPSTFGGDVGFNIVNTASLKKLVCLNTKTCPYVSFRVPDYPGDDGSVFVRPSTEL
Procedure: (§1) ARBL/ARBC WHOLE CELL 5-LIPOXYGENASE AND CYCLOOXYGENASE ASSAYS The rat basophilic leukemia cell line (RBL-1) was obtained from the American Type Culture Collection (Rockville, Md.). Radioimmunoassay (RIA) kits of LTB4 and PGF2α were obtained from Amersham (Arlington Heights, Ill.) and Seragen (Boston, Mass.), respectively. RBL-1 cells are grown in suspension culture in Eagle's minimum essential medium supplemented with 12% fetal bovine serum at 37° C. in an incubator supplied with air-5% carbon dioxide. Cells are harvested by centrifugation. They are washed with cold phosphate-buffered saline, pH 7.4 (PBS; NaCl, 7.1 g; Na2 HPO4, 1.15 g; KH2 PO4, 0.2 g; and KCl, 0.2 g/L). Cells are finally suspended in PBS containing 1.0 mM calcium at a density of 2×10^6 cells/mL. Cells are incubated […] test agent (in DMSO) (1% DMSO is without effect on arachidonic acid metabolism) for 10 minutes at room temperature. Calcium ionophore A23187 (5 μM) is added and cells are incubated for 7 minutes at 37° C. The reaction is stopped by chilling the tubes on ice for 10 minutes. Cells are separated by centrifugation and the supernatant is stored at -20° C. Aliquots (100 μL) are analyzed for LTB4 and PGF2α using radioimmunoassay kits as provided by the supplier. Table 1 contains biochemical data for compounds of Formula I obtained from this whole cell assay as amount of inhibition at given μM or IC50 s which are calculated as the concentration of a test compound in micromoles (μM) causing 50% inhibition of LTB4 or PGF2αformation.

5-lipoxygenase = target: T2, 5-lipoxygenase (Rattus norvegicus, UniProt P12527); test: ARBL whole cell 5-lipoxygenase assay (LTB4 formation, RBL-1 cells); type: cell-based; conditions: 50% inhibition of LTB4 formation
T2 construct: host or cells: RBL-1
T2 sequence (P12527 1-673): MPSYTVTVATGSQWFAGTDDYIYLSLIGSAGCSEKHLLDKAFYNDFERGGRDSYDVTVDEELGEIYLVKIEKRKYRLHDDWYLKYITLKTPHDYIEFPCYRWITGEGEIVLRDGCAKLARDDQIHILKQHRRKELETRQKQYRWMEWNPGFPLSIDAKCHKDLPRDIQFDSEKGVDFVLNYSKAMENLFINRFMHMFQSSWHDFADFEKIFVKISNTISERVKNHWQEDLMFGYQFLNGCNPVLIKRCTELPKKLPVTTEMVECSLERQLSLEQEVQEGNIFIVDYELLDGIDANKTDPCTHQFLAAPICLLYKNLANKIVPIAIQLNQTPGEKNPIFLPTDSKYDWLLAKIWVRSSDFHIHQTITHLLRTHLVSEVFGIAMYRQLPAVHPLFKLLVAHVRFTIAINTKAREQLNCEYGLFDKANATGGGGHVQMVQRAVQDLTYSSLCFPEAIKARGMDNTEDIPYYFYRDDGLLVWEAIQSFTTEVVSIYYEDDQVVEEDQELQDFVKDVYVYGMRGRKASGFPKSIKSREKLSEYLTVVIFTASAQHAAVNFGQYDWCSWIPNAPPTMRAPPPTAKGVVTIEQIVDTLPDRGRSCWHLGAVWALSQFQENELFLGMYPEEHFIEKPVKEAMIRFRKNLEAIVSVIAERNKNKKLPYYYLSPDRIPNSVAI
Procedure: as §1

| IC50 (cyclooxygenase; 50% inhibition of PGF2α formation) | IC50 (5-lipoxygenase) | ARBC inhibition of PGF2α at given concentration (cyclooxygenase; @ 16 μM, A23187) | SMILES | ED40 [1] | ED40 [2] | UD50 (gastric ulcers) |
| --- | --- | --- | --- | --- | --- | --- |
| 4.1 µM | 2.3 µM |  | CC(C)(C)c1cc(C(NO)c2ccccc2)cc(C(C)(C)C)c1O (centres unmarked) [Example 20] | 13.2 mg/kg | 3.8 mg/kg | N (N = less than 40% inhibition at given concentration) |
|  | 4.8 µM | 42/75 | CC(=O)N(O)C(c1ccccc1)c1cc(C(C)(C)C)c(O)c(C(C)(C)C)c1 (centres unmarked) [Example 22, N-[[3,5-Bis(1,1-dimethylethyl)-4-hydroxyphenyl]-phenylmethyl]-N-hydroxyacetamide] | > 30 mg/kg |  |  |
